Experimental data published in publication PMC4919369, “A phase I study of the investigational NEDD8-activating enzyme inhibitor pevonedistat (TAK-924/MLN4924) in patients with metastatic melanoma” (Investigational New Drugs, 2016).
Values joined by “and” are separate entries in the source; they are usually repeats but may differ in a detail not shown here. Identical values can stand only once. “Also recorded” adds a separate entry of the source. Like-named read-outs stand apart in the source and are kept apart here.

Key:
[1] = tested on: NAE; design: method as in PMID 21779466, PMID 15688063, PMID 19360080, PMID 23416079, PMID 24853380; conditions: NAE inhibition; cited from earlier work
[2] = tested on: patients with metastatic melanoma; experiment: Antitumor activity, response by modified RECIST v1.1; type: in vivo, human
Experimental: (§1) Adverse events (AEs) were graded using the National Cancer Institute’s Common Terminology Criteria for AEs version 3.0. Response was assessed using the modified RECIST guideline (v1.1). Computed tomography or magnetic resonance imaging scans were performed at screening, at the end of Cycle 2, and then every other cycle.

[3] = tested on: patients with solid tumors; design: method as in PMID 26423795; conditions: cited from earlier work
[4] = tested on: NAE-regulated transcriptional targets (ATF3, GCLM, GSR, MAG1, NQ01, SLC7A11, SRXN1, and TXNRD1); experiment: RT-PCR of NAE-regulated transcripts in whole blood; type: in vivo, human
Experimental: Blood samples for PD analysis were collected during Cycle 1. […] On schedule B samples were collected: at screening; on Day 1 within 1 h before dosing and 1, 2, 4, and 8 h after completion of infusion; on Day 8 within 1 h before dosing; and on Day 15 within 1 h before dosing and 1, 2, and 4 h after completion of infusion. Gene expression of NAE-regulated transcriptional targets (ATF3, GCLM, GSR, MAG1, NQ01, SLC7A11, SRXN1, and TXNRD1) in whole blood was analyzed by reverse-transcription polymerase chain reaction (RT-PCR). Raw data were transformed prior to calculation of percent change and assumptions were made for missing data, as previously described. Summary statistics were generated for the percent change from baseline at each time point for each gene.

[5] = tested on: patients with relapsed/refractory AML or MDS; design: method as in PMID 25733005; conditions: cited from earlier work; for MTD: single-agent
[6] = tested on: patients with metastatic melanoma; experiment: Adverse events (NCI CTCAE v3.0) in the phase I study, safety population; type: in vivo
Experimental: (§2) Patients received pevonedistat as 1 h intravenous infusions either on Days 1, 4, 8, and 11 (schedule A) or on Days 1, 8, and 15 (schedule B, weekly dosing) of 21-day cycles. For schedule A, intermittent dosing on Days 1, 4, 8, and 11 was chosen to match the twice-weekly schedule of the proteasome inhibitor bortezomib. The starting dose of 50 mg/m^2 was selected based on the toxicities and the MTD observed in another phase I study that investigated pevonedistat administration on Days 1–5 of 21-day cycles in patients with advanced solid tumors. It was hypothesized that intermittent dosing – extending the dose over a 2-week period – would be better tolerated than the continuous dosing schedule, which was associated with severe hepatotoxicity. Schedule B, which was added subsequently through a protocol amendment, was based on the rationale that weekly bortezomib has similar efficacy and is more convenient than the twice-weekly schedule. […] Patients could receive pevonedistat until disease progression or unacceptable drug-related toxicity, up to a maximum of 12 months.
as §1

[7] = Plasma pharmacokinetics (LC/MS/MS, noncompartmental analysis); conditions: for Dose proportionality of plasma exposure: 50–278 mg/m^2, after Day 1 intravenous infusion; for Disposition profile following completion of the intravenous infusion: schedules A and B
Experimental: (§3) Blood samples (3 mL) for PK analysis were collected during Cycle 1. On schedule A, serial samples were collected within 1 h before dosing on Day 1, immediately after completion of infusion (immediately before switching off infusion pump), and at 1, 4, and 7 h after completion of infusion. Samples were also collected on Days 2 and 3; on Days 4 and 8 (immediately before dosing and immediately after completion of infusion); on Day 11 immediately before dosing, immediately after completion of infusion, and at 4 and 7 h after completion of infusion; and on Day 15. On schedule B, blood samples were collected within 1 h before dosing on Day 1, immediately after completion of infusion (immediately before switching off infusion pump), and at 1, 2, 4, and 7 h after completion of infusion. Samples were also collected on Days 2, 3, and 4; and on Days 8 and 15 (immediately before dosing and immediately after completion of infusion). Samples were analyzed at Tandem Labs (West Trenton, NJ) for pevonedistat plasma concentrations using Good Laboratory Practice-validated liquid chromatography/tandem mass spectrometry methods. The dynamic ranges were 1–500 ng/mL for the low-range assay and 75–7500 ng/mL for the high-range assay.
(§4) The PK-evaluable population included all patients who received all protocol-defined doses in Cycle 1, had sufficient plasma concentration–time data to reliably estimate PK parameters, and had not received any excluded concomitant medications per protocol. Individual pevonedistat plasma concentration–time data were analyzed by noncompartmental methods using WinNonlin software (Version 6.2, Pharsight Corporation, Cary, NC). Plasma concentrations below the lower limit of quantification were set to zero for analysis.

[8] = clinical; conditions: human, in vivo
Experimental: as §3, §4

[9] = tested on: treatment-naïve elderly patients with AML; design: method as in earlier work; conditions: in combination with azacitidine, Days 1, 3, and 5 schedule; cited from earlier work
[10] = tested on: patients with multiple myeloma or lymphoma; design: method as in PMID 26561559; conditions: cited from earlier work
[11] = tested on: patients with metastatic melanoma; experiment: Dose escalation: DLTs and MTD determination (Bayesian continual reassessment method); type: in vivo; conditions: schedule A (Days 1, 4, 8, and 11 of 21-day cycles), 1 h intravenous infusion
Experimental: as §2
Dose escalation proceeded via a Bayesian continual reassessment method using 2-patient cohorts and 1.33-fold dose increments over the previous dose level. Dose escalation decisions were based on occurrence of DLTs in Cycle 1 and the predicted MTD from the continual reassessment model (Supplementary Fig. S1). […]

[12] = tested on: pevonedistat–NEDD8 adduct, Cdt1 and Nrf-2; experiment: Immunohistochemistry of paired tumor biopsies; type: in vivo, human
Experimental: For patients in the MTD expansion cohort, paired tumor biopsies were obtained at screening and at 3–6 h post-dosing on Day 4 (schedule A) or Day 8 (schedule B). […] Immunohistochemical analyses were performed at Millennium Pharmaceuticals, Inc. as previously described.

[13] = the patient with partial response, 209 mg/m^2 schedule A
[14] = nine melanoma patients in the first-in-human phase I study
[15] = Cycle 1, Day 1, 7 h post-dose, Schedule A MTD, 209 mg/m^2 (n=11)
[16] = Cycle 1, Day 1, 8 h post-dose, Schedule B, 157 mg/m^2 (n=8)
[17] = human, plasma, intravenous, 157 mg/m^2

In the case of NS(=O)(=O)OC[C@@H]1C[C@@H](n2ccc3c(N[C@H]4CCc5ccccc54)ncnc32)C[C@@H]1O [pevonedistat, Pevonedistat], the “Fraction of the proteins regulated by the UPS whose proteasomal degradation is prevented” value [1] is given as ~ 20%, the “Best response: progressive disease” value ([2]; 31 response-evaluable patients) is given as 15 (48 %) patients and the “Best response: stable disease” value ([2]; 31 response-evaluable patients, schedule A and B) is given as 15 patients and 15 (48 %) patients. For the same compound, the “Patients with stable disease lasting 6.5 months or longer” value ([2]; among the 15 patients who achieved stable disease) was 4 patients, the Duration of response [2, 13] was 1.55 months and the “Overall duration of stable disease or better” value [2, 13] was 4.4 months. For the same compound, the MTD ([3]; Days 1–5 and Days 1, 3, and 5 schedules) was 50–67 mg/m^2, the DLTs [3] was “ALT elevation, AST elevation, and hyperbilirubinemia” and the “Duration of stable disease in another patient” value [3, 14] was 6 months. The “Patients achieving a partial response” value [3, 14] was “one”, the “ATF3 transcript, median % change from baseline (range)” value [4, 15] was 88.6 (–38.6 to 385.0) % and the “GCLM transcript, median % change from baseline (range)” value [4, 15] was 105.3 (–33.0 to 234.2) %. For the same compound, the “GSR transcript, median % change from baseline (range)” value [4, 15] was 196.6 (–54.2 to 447.6) %, the “MAG1 transcript, median % change from baseline (range)” value [4, 15] was 99.1 (–22.4 to 236.4) % and the “NQ01 transcript, median % change from baseline (range)” value [4, 15] was 681.2 (–49.7 to 2740.6) %. For the same compound, the “SLC7A11 transcript, median % change from baseline (range)” value [4, 15] was 837.0 (–65.3 to 3873.9) %, the “SRXN1 transcript, median % change from baseline (range)” value [4, 15] was 142.0 (–50.5 to 340.0) % and the “TXNRD1 transcript, median % change from baseline (range)” value [4, 15] was 220.7 (–41.7 to 347.7) %. For the same compound, the “ATF3 transcript, median % change from baseline (range)” value [4, 16] was 260 (30.8 to 541.4) %, the “GCLM transcript, median % change from baseline (range)” value [4, 16] was 65.4 (20.0–108.0) % and the “GSR transcript, median % change from baseline (range)” value [4, 16] was 176.2 (93.2–216.6) %. The “MAG1 transcript, median % change from baseline (range)” value [4, 16] was 81.7 ( 39.0–158.2) %, the “NQ01 transcript, median % change from baseline (range)” value [4, 16] was 833.8 (330.6–2202.3) % and the “SLC7A11 transcript, median % change from baseline (range)” value [4, 16] was 727.4 (184.7 to 1660.0) %. For the same compound, the “SRXN1 transcript, median % change from baseline (range)” value [4, 16] was 81.5 (43.3 to 185.3) %, the “TXNRD1 transcript, median % change from baseline (range)” value [4, 16] was 156.9 (87.8 to 234.9) % and the “Change of all eight NAE-regulated gene transcripts post-treatment” value ([4]; MTD on schedule A and schedule B) was “increases in NAE-regulated transcripts post-treatment; also recorded: significantly increased”. The “Doses at which induction of all NAE-regulated transcriptional targets was observed” value ([4]; data not shown) was no less than 50 mg/m^2, the DLTs [5] was “multi-organ failure, reversible ALT elevation, AST/ALT elevation, cardiac failure, and acute renal failure” and the MTD ([5]; Days 1, 3, and 5 of 21-day cycles) was 50/59. For the same compound, the MTD ([5]; Days 1, 4, 8, and 11 schedule) was 83 mg/m^2, the On-study death ([6]; Schedule A (n = 26)) was 2 (8) n (%) and the On-study death ([6]; Schedule B (n = 11)) was 1 (9) n (%). The “Severity of peripheral neuropathy” value ([6]; human, in vivo) was “mild (grade 1)”, the “Patients who experienced acute organ failure toxicities” value ([6]; in vivo) was “Two” and the “Tolerability at the MTD” value ([6]; schedule A, 209 mg/m^2) was “generally well tolerated”. For the same compound, the Drug-related death ([6]; schedule A, 209 mg/m^2, one patient after one dose, Day 9 of Cycle 1) was “grade 5 acute renal failure; also recorded: died due to drug-related acute renal failure”, the “Dose proportionality of plasma exposure” value [7] was “increased approximately proportionally with dose” and the “Dose proportionality of plasma exposure” value ([7]; listed as Pevonedistat) was “approximately dose-proportional”. It also gave an AUC(0-inf) [7, 17] of 8930 ng·h/mL, an AUC(0-t) [7, 17] of 7250 ng·h/mL and a Cmax [7, 17] of 2450 ng/mL. For the same compound, the Tmax [7, 17] was 1 h, the clearance [7, 17] was 647 mL/min and the half-life [7, 17] was 10.1 h. For the same compound, the half-life ([7]; human, plasma, iv) was roughly 10 h, the “Disposition profile following completion of the intravenous infusion” value [7] was “biphasic disposition phase” and the “Disposition profile following completion of the intravenous infusion” value ([7]; listed as Pevonedistat) was “biphasic disposition profile”. For the same compound, the Tmax [8] was 1 h, the clearance [8] was 635 mL/min and the half-life [8] was 10.4 h. For the same compound, the MTD [9] was 20 mg/m^2, the MTD ([10]; Day 1, 2, 8, and 9 schedule) was 110 mg/m^2 and the MTD ([10]; Days 1, 4, 8, and 11 of 21-day cycles) was 196 mg/m^2. For the same compound, the DLTs [10] was “febrile neutropenia, AST elevation, muscle cramps, and thrombocytopenia”, the “Maximum tolerated dose (MTD)” value [11] was 209 mg/m^2 and the “pevonedistat–NEDD8 adduct in post-dose tumor biopsy samples” value ([12]; 3–6 h after Cycle 1, Day 4 dose, 3 patients, Schedule A MTD expansion cohort) was “positive”. The “Immunohistochemical expression of Cdt1 and Nrf-2 in tumor” value ([12]; one patient with adequate biopsy tissue, schedule A MTD) was “increased post-treatment”.
